Measured values as given in patent publication US9676701B2, “Cyclopropylamine derivatives useful as LSD1 inhibitors” (Oryzon Genomics, S.A., priority 2010, dated 2017).
Structures can show the parent of a compound that is named as a salt. Where two headings read alike, the source gives them in different places.

Experiments:
MAO-B [1] = molecular target: T1, MAO-B (Homo sapiens (Human), UniProt P27338); conditions: read-out: MAO-B (Ki)
[2] = molecular target: T2, Human recombinant LSD1 protein (Homo sapiens (Human), UniProt O60341); conditions: for Ki: read-out: LSD1 (Ki)
MAO-A [3] = molecular target: T3, MAO-A (Homo sapiens (Human), UniProt P21397); conditions: read-out: MAO-A (Ki)
T3 sequence (P21397 whole entry): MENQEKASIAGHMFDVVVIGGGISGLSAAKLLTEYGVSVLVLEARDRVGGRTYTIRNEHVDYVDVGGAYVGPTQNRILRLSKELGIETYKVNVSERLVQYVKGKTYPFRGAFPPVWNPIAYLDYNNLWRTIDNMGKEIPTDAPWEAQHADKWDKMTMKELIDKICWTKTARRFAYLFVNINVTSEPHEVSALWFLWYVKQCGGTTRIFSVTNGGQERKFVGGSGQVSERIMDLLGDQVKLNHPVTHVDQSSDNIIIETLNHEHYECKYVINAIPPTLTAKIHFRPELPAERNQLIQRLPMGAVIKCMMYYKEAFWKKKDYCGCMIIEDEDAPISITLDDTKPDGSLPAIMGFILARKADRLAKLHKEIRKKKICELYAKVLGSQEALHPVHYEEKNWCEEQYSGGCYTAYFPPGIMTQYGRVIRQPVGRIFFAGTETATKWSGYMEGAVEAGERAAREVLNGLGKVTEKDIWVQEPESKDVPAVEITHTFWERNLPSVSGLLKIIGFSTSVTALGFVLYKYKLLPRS

MAO-A [4] = molecular target: T3, MAO-A; assay: biochemical
[5] = molecular target: T2, Human recombinant LSD1 protein; assay: biochemical
MAO-B [6] = molecular target: T1, MAO-B; assay: biochemical

T1 sequence (P27338 whole entry): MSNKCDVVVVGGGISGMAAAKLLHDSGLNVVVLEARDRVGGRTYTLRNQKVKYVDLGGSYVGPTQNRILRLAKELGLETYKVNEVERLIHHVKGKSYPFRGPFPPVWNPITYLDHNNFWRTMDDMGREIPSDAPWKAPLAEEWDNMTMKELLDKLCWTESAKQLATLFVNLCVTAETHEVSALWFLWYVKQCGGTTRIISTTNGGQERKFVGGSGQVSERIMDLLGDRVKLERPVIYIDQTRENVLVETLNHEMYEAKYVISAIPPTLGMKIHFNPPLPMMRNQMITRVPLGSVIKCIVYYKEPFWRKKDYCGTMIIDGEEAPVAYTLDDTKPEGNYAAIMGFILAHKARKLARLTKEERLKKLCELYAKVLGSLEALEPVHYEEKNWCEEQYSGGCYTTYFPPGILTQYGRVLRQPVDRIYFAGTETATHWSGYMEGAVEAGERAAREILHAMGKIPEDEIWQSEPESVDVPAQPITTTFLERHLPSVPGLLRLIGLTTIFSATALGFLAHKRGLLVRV

Ki (MAO-B [1]) [nM] | Ki [2] [nM] | Ki (MAO-A [3]) [nM] | Ki (MAO-A [4]) [nM] | Ki [5] [nM] | LSD1 (Ki) [2] | Ki (MAO-B [6]) [nM] | Compound
1000 to 40000 | 1000 to 40000 | 1000 to 40000 |  |  |  |  | NC(=O)c1ccc(-c2ccc([C@H]3C[C@@H]3N)cn2)cc1 (relative stereo) [Example 18, 4-(5-((trans)-2-aminocyclopropyl)pyridin-2-yl)benzamide hydrochloride]
1000 to 40000 |  |  | 100 to 1000 | 1 to 100 |  |  | CS(=O)(=O)Nc1cc(-c2ccc([C@H]3C[C@@H]3N)cc2)ccc1F (relative stereo) [Example 96, N-(4′-((trans)-2-aminocyclopropyl)-4-fluoro-[1,1′-biphenyl]-3-yl)methanesulfonamide hydrochloride]
1000 to 40000 | 1000 to 40000 | 1000 to 40000 |  |  |  |  | N[C@H]1C[C@@H]1c1ccc(-c2cccc(C(F)(F)F)c2)nc1-c1ccc(Cl)cc1 (relative stereo) [Example 77, (trans)-2-(2-(4-chlorophenyl)-6-(3-(trifluoromethyl)phenyl)pyridin-3-yl)cyclopropanamine hydrochloride]
 |  |  | 100 to 1000 |  |  |  | N#Cc1cccc(S(=O)(=O)Nc2cccc(-c3ccc([C@H]4C[C@@H]4N)cn3)c2)c1 (relative stereo) [Example 100, N-(3-(5-((trans)-2-aminocyclopropyl)pyridin-2-yl)phenyl)-3-cyanobenzenesulfonamide hydrochloride]
1000 to 40000 |  | 1000 to 40000 |  |  | II-III |  | COc1ccc(C#N)cc1-c1ccc([C@H]2C[C@@H]2N)cc1.Cl (relative stereo) [Example 74, 4′-((trans)-2-aminocyclopropyl)-6-methoxybiphenyl-3-carbonitrile hydrochloride]
1000 to 40000 | 1000 to 40000 | 1000 to 40000 |  |  |  |  | Cc1cc([C@H]2C[C@@H]2N)cnc1-c1cccc(C(F)(F)F)c1 (relative stereo) [Example 37, (trans)-2-(5-methyl-6-(3-(trifluoromethyl)phenyl)pyridin-3-yl)cyclopropanamine hydrochloride]
 |  |  |  | 100 to 1000 |  | 100 to 1000 | N[C@H]1C[C@@H]1c1ccc(-c2ccc(-c3ccccc3)cc2)cc1 [Example 2, (trans)-2-(terphenyl-4-yl)cyclopropanamine hydrochloride]
1000 to 40000 |  |  | 100 to 1000 | 100 to 1000 |  |  | COc1cc(-c2cccc(O)c2)ccc1[C@H]1C[C@@H]1N (relative stereo) [Example 106, 4′-((trans)-2-aminocyclopropyl)-3′-methoxy-[1,1′-biphenyl]-3-ol hydrochloride]
1000 to 40000 | 1000 to 40000 | 1000 to 40000 |  |  |  |  | N[C@H]1C[C@@H]1c1ccc(-c2cccc(C(F)(F)F)c2)nc1-c1ccc(O)cc1 (relative stereo) [Example 78, 4-(3-((trans)-2-aminocyclopropyl)-6-(3-(trifluoromethyl)phenyl)pyridin-2-yl)phenol hydrochloride]
 |  |  | 100 to 1000 |  |  |  | N#Cc1ccc(O)c(-c2ccc([C@H]3C[C@@H]3N)cn2)c1 (relative stereo) [Example 89, 3-(5-((trans)-2-aminocyclopropyl)pyridin-2-yl)-4-hydroxybenzonitrile hydrochloride]
1000 to 40000 |  | 1000 to 40000 |  |  | II-III |  | Cl.N[C@H]1C[C@@H]1c1ccc(-c2ccc3cn[nH]c3c2)nc1 (relative stereo) [Example 60, (Trans)-2-(6-(1H-indazol-6-yl)pyridin-3-yl)cyclopropanamine hydrochloride]
 |  |  | 100 to 1000 |  |  |  | N#Cc1ccc(O)c(-c2ccc([C@H]3C[C@@H]3N)cc2)c1 (relative stereo) [Example 87, 4′-((trans)-2-aminocyclopropyl)-6-hydroxybiphenyl-3-carbonitrile hydrochloride]
1000 to 40000 |  | 1000 to 40000 |  | 100 to 1000 |  |  | COc1cc(F)cc(-c2ccc([C@H]3C[C@@H]3N)cn2)c1 (relative stereo) [Example 39, (trans)-2-(6-(3-fluoro-5-methoxyphenyl)pyridin-3-yl)cyclopropanamine hydrochloride]
1000 to 40000 |  | 1000 to 40000 |  | 100 to 1000 |  |  | COc1ccc(Cl)c(-c2ccc([C@H]3C[C@@H]3N)cn2)c1 (relative stereo) [Example 43, (trans)-2-(6-(2-chloro-5-methoxyphenyl)pyridin-3-yl)cyclopropanamine hydrochloride]
1000 to 40000 |  | 1000 to 40000 |  | 1 to 100 |  |  | N[C@H]1C[C@@H]1c1ccc(-c2cc(O)cc(Cl)c2)nc1 (relative stereo) [Example 29, 3-(5-((trans)-2-aminocyclopropyl)pyridin-2-yl)-5-chlorophenol hydrochloride]
1000 to 40000 |  | 1000 to 40000 |  | 100 to 1000 |  |  | N[C@H]1C[C@@H]1c1ccc(-c2cc3ccccc3s2)nc1 (relative stereo) [Example 54, (trans)-2-(6-(benzo[b]thiophen-2-yl)pyridin-3-yl)cyclopropanamine hydrochloride]
1000 to 40000 |  | 1000 to 40000 |  | 1 to 100 |  |  | N[C@H]1C[C@@H]1c1ccc(-c2cc(O)ccc2F)nc1 (relative stereo) [Example 25, 3-(5-((trans)-2-aminocyclopropyl)pyridin-2-yl)-4-fluorophenol hydrochloride]
1000 to 40000 |  | 1000 to 40000 |  | 1 to 100 |  |  | CC(C)S(=O)(=O)Nc1cccc(-c2ccc([C@H]3C[C@@H]3N)cn2)c1 (relative stereo) [Example 65, N-(3-(5-((trans)-2-aminocyclopropyl)pyridin-2-yl)phenyl)propane-2-sulfonamide hydrochloride]
1000 to 40000 |  | 1000 to 40000 |  | 1 to 100 |  |  | Cc1ccc(-c2ccc([C@H]3C[C@@H]3N)cn2)cc1O (relative stereo) [Example 46, 5-(5-((trans)-2-aminocyclopropyl)pyridin-2-yl)-2-methylphenol hydrochloride]
1000 to 40000 |  |  | 1 to 100 | 1 to 100 |  |  | N[C@H]1C[C@@H]1c1cnc(-c2cccc(O)c2)s1 (relative stereo) [Example 116, 3-(5-((trans)-2-aminocyclopropyl)thiazol-2-yl)phenol hydrochloride]
1000 to 40000 |  | 1000 to 40000 |  | 100 to 1000 |  |  | CC(=O)Nc1cccc(-c2ccc([C@H]3C[C@@H]3N)cn2)c1 (relative stereo) [Example 52, N-(3-(5-((trans)-2-aminocyclopropyl)pyridin-2-yl)phenyl)acetamide hydrochloride]
1000 to 40000 | 1000 to 40000 | 1000 to 40000 |  |  |  |  | NC(=O)c1ccc(-c2nc(-c3cccc(C(F)(F)F)c3)ccc2[C@H]2C[C@@H]2N)cc1 (relative stereo) [Example 79, 4-(3-((trans)-2-aminocyclopropyl)-6-(3-(trifluoromethyl)phenyl)pyridin-2-yl)benzamide hydrochloride]
1000 to 40000 |  | 1000 to 40000 |  |  | II-III |  | CS(=O)(=O)Nc1ccccc1-c1ccc([C@H]2C[C@@H]2N)cc1.Cl (relative stereo) [Example 73, N-(4′-((trans)-2-aminocyclopropyl)biphenyl-2-yl)methanesulfonamide hydrochloride]
1000 to 40000 |  | 1000 to 40000 |  | 100 to 1000 |  |  | Cc1cscc1-c1ccc([C@H]2C[C@@H]2N)cn1 (relative stereo) [Example 57, (trans)-2-(6-(4-methylthiophen-3-yl)pyridin-3-yl)cyclopropanamine hydrochloride]
 |  |  | 100 to 1000 |  |  |  | CS(=O)(=O)Nc1cc(Cl)cc(-c2ccc([C@H]3C[C@@H]3N)cn2)c1 (relative stereo) [Example 95, N-(3-(5-((trans)-2-aminocyclopropyl)pyridin-2-yl)-5-chlorophenyl)methanesulfonamide hydrochloride]
1000 to 40000 | 1000 to 40000 | 1000 to 40000 |  |  |  |  | N[C@H]1C[C@@H]1c1ccc(-c2ccc3c(c2)[nH]c2ccccc23)nc1 (relative stereo) [Example 61, (Trans)-2-(6-(9H-carbazol-2-yl)pyridin-3-yl)cyclopropanamine hydrochloride]
1000 to 40000 |  | 1000 to 40000 |  | 100 to 1000 |  |  | COc1cc(-c2ccc([C@H]3C[C@@H]3N)cn2)cc(F)c1F (relative stereo) [Example 58, (Trans)-2-(6-(3,4-difluoro-5-methoxyphenyl)pyridin-3-yl)cyclopropanamine hydrochloride]
1000 to 40000 |  | 1000 to 40000 |  | 100 to 1000 |  |  | N[C@H]1C[C@@H]1c1ccc(-c2ccc3c(c2)NC(=O)C3)nc1 (relative stereo) [Example 62, 6-(5-((trans)-2-aminocyclopropyl)pyridin-2-yl)indolin-2-one hydrochloride]
1000 to 40000 | 1000 to 40000 | 1000 to 40000 |  |  |  |  | Cc1cc([C@H]2C[C@@H]2N)cnc1-c1cccc(Cl)c1 (relative stereo) [Example 36, (trans)-2-(6-(3-chlorophenyl)-5-methylpyridin-3-yl)cyclopropanamine]

Compound | Ki (MAO-B [1]) [nM] | Ki [2] [nM] | Ki (MAO-A [3]) [nM] | Ki (MAO-A [4]) [nM] | Ki [5] [nM] | LSD1 (Ki) [2] | Ki (MAO-B [6]) [nM]
CNS(=O)(=O)c1cccc(-c2ccc([C@H]3C[C@@H]3N)cn2)c1 [Example 104, hydrochloride] | 1000 to 40000 |  |  | 100 to 1000 |  |  | 
Enantiomers of 4′-((trans)-2-aminocyclopropyl)biphenyl-3-ol hydrochloride [Example 63] | 1000 to 40000 | 1 to 100 | 1000 to 40000 |  |  |  | 
N#Cc1ccccc1S(=O)(=O)Nc1cccc(-c2ncc([C@H]3C[C@@H]3N)s2)c1 (relative stereo) [Example 124, N-(3-(5-((trans)-2-aminocyclopropyl)thiazol-2-yl)phenyl)-2-cyanobenzenesulfonamide dihydrochloride] | 1000 to 40000 |  | 1000 to 40000 |  | 1 to 100 |  | 
